These results are taken from patent US12403141B2, “Deuterated MK2 pathway inhibitors and methods of using the same” (ACLARIS THERAPEUTICS, INC., priority 2019, dated 2025).

Structures are written as SMILES. “Also recorded” adds a separate entry of the source.

A short description of data set [1]: PO pharmacokinetics in male SD rats. The class given is in vivo, rat. Particulars: PO 2 mpk. The method, then: Pharmacokinetic parameters of some examples were evaluated in male Sprague Dawley (SD) rats after intravenous (IV) and oral (PO) dosing. Male SD rats (5-6 weeks of age) were fasted for 12 hours before administration of the compound of interest. Animals were allowed access to food 2 h after dosing and water was given ad libitum. Except for the compound of Example 13, pharmacokinetic experiments comparing deuterium containing and non-deuterium containing compounds were performed at the same time using the same cohort of animals. The pharmacokinetic properties of the compound of Example 13 were evaluated separately and compared to previously generated data.
For oral (PO) dosing, a 0.2 mg/mL suspension of the test compound was prepared in a vehicle comprising 0.5% Tween-20 in 0.5% methyl cellulose in phosphate buffered saline (PBS). For a 2 mpk dose, 10 mL/kg of this dosing vehicle was administered by oral gavage. Blood samples from each animal was collected di-sodium EDTA coated containers at 0.25, 0.5, 1.0, 2.0, 4.0, 8.0 10.0 and 24.0 hours after dosing. Plasma was separated from the blood samples within 15 minutes following collection and stored at −20±5° C. before analysis.
A standard curve was generated from a stock solution of the test compound with known concentration in methanol. […]
Plasma samples collected from rats after dosing were allowed to reach room temperature. […] The supernatant (10 uL) was analyzed by LC-MS/MS (LC: Shimadzu SIL HTc, MS: MDS Sciex API-5500 & 4000 using 75%/25% acetonitrile/0.2% formic acid in Milli-Q water, flow rate: 1.0 mL/min, run time 3 minutes, Atlantis dC18(50×4.6 mm, 3 um; Waters®)) and the concentrations of the test compound in the plasma samples collected from rats at each time point were determined by comparison to the standard curve samples.
Pharmacokinetic parameters were calculated from the plasma concentrations at each time point using Phoenix WinNonlin (Version 7.0) by the non-compartmental analysis (NCA) method. […]

For data set [2], the system named is rat hepatocytes. Nature of the data set: In vitro metabolite profile in rat hepatocytes. Further details: key to UV % at 280-290 nm or observed (+ or --), metabolite M532b (Hydroxylation) / UV % at 280-290 nm or observed (+ or --), metabolite M532d (Hydroxylation) / UV % at 280-290 nm or observed (+ or --), metabolite M532e (Hydroxylation) / UV % at 280-290 nm or observed (+ or --), metabolite M530b (Hydroxylation) / UV % at 280-290 nm or observed (+ or --), metabolite M530d (Hydroxylation) / UV % at 280-290 nm or observed (+ or --), metabolite M530e (Hydroxylation): +: only detected by MS; --: not detected or trace. Particulars: 10 μM; for UV % at 280-290 nm, Parent-T0 min: T0 min (normalized as 100%). The class given is in vitro ADME. The procedure: (§1) Briefly, each test compound (final concentration of 10 μM containing 0.1% DMSO) was incubated with rat, dog, minipig, monkey, or human hepatocytes (final viable cell density of 1×10^6 cells/mL) at 37° C. with 5% CO2 in HI hepatocyte maintenance media (BIOIVT; Catalog #Z99009) for 120 minutes. Reactions were initiated by combining 200 μL of pre-warmed 2× dosing solution containing 20 μM test compound and 0.2% DMSO in HI maintenance media with 200 μL of pre-warmed hepatocyte solution containing 2×10^6 cells/mL in HI maintenance media. Samples were taken at 0 minutes (T0) and 120 minutes (T120) by quenching the reaction with 1200 μL acetonitrile. After quenching, the samples were sonicated for 2 minutes and then centrifuged at 1400 rpm for 5 minutes. A 1400-μL aliquot of the supernatant was evaporated under a stream of N2 until dry. The dried extracts were then reconstituted with 200 μL acetonitrile: H2O (1:3 v/v), vortexed for 2 minutes and centrifuged at 14000 rpm for 5 minutes. A 2-μL aliquot of the supernatant was injected onto a Xevo UPLC-UV-G2-S Q-Tof system (Waters®) with positive-ion electrospray ionization for analysis. Chromatographic separation was achieved on an Acquity UPLC®BEH C18 column (2.1×50 mm, 1.7 μm; Waters®) by gradient elution using varying proportions of mobile phase A (H2O with 0.1% formic acid) and mobile phase B (acetonitrile with 0.1% formic acid) at a constant flow rate of 400 μL/minute over a total run time of 10 minutes. LC-UV-MS extract ion chromatograms (EIC) of the T120 samples were compared to the T0 samples to identify the major putative metabolites which were named as Mm/z.

Data set [3] has as its system dog hepatocytes. Kind of data set: In vitro metabolite profile in dog hepatocytes. The format is in vitro ADME. Further details: key to UV % at 280-290 nm or observed (+ or --), metabolite M387 (O-dealkylation) / UV % at 280-290 nm or observed (+ or --), metabolite M532b (Hydroxylation) / UV % at 280-290 nm or observed (+ or --), metabolite M532c (Hydroxylation) / UV % at 280-290 nm or observed (+ or --), metabolite M532d (Hydroxylation) / UV % at 280-290 nm or observed (+ or --), metabolite M532e (Hydroxylation) / UV % at 280-290 nm or observed (+ or --), metabolite M563 (O-dealkylation + Glucuronidation) / UV % at 280-290 nm or observed (+ or --), metabolite M530b (Hydroxylation) / UV % at 280-290 nm or observed (+ or --), metabolite M530c (Hydroxylation) / UV % at 280-290 nm or observed (+ or --), metabolite M530d (Hydroxylation) / UV % at 280-290 nm or observed (+ or --), metabolite M530e (Hydroxylation): +: only detected by MS; --: not detected or trace. Particulars: 10 μM; for UV % at 280-290 nm, Parent-T0 min: T0 min (normalized as 100%). The procedure:
as §1

Setting [4] is: 120 min, relative to parent at T0.

`Cc1cnc(-c2ccnc(C(C)(C)O)n2)cc1-n1c(C)cc(OCc2ncc(F)cc2F)c(Cl)c1=O` (atropisomer, axis not shown; (P)) [Example 1-H2, (P)-3-chloro-4-((3,5-difluoropyridin-2-yl)methoxy)-2′-(2-(2-hydroxypropan-2-yl)pyrimidin-4-yl)-5′,6-dimethyl-2H-[1,4′-bipyridin]-2-one] displayed an AUC0-10 hr in data set [1] (± one standard deviation) of 854 ± 228 ng·h/mL. In data set [2] (setting [4]), the “UV % at 280-290 nm or observed (+ or --), metabolite M387 (O-dealkylation)” value (“UV % … (O-dealkylation)” below) stood at 16.2%; the “UV % at 280-290 nm or observed (+ or --), metabolite M530b (Hydroxylation)” value is given as “+”; the “UV % at 280-290 nm or observed (+ or --), metabolite M530c (Hydroxylation)” value was found to be 1.1%; the “UV % at 280-290 nm or observed (+ or --), metabolite M530e (Hydroxylation)” value is on record as “+”. In data set [2] (setting [4]), the “UV % at 280-290 nm or observed (+ or --), metabolite M563 (O-dealkylation + Glucuronidation)” value was 1.06%; the “UV % at 280-290 nm or observed (+ or --), metabolite M530d (Hydroxylation)” value is “--”; the “UV % at 280-290 nm, Parent-T120 min” value came to 82.7%. The “UV % at 280-290 nm, Parent-T0 min” value in data set [2] turned out to be 100.0%. Also, in data set [3] (setting [4]), the “UV % … (O-dealkylation)” value came to 4.1%; the “UV % at 280-290 nm or observed (+ or --), metabolite M530b (Hydroxylation)” value was “--”; the “UV % at 280-290 nm or observed (+ or --), metabolite M530c (Hydroxylation)” value is given as “+”; the “UV % at 280-290 nm or observed (+ or --), metabolite M530e (Hydroxylation)” value is reported as “+”. In addition, in data set [3] (setting [4]), the “UV % at 280-290 nm or observed (+ or --), metabolite M563 (O-dealkylation + Glucuronidation)” value is recorded as “+”; the “UV % at 280-290 nm or observed (+ or --), metabolite M530d (Hydroxylation)” value is listed as “--”; the “UV % at 280-290 nm, Parent-T120 min” value is given as 87.0%. The “UV % at 280-290 nm, Parent-T0 min” value in data set [3] is on record as 100.0%.

With `[2H]C([2H])(Oc1cc(C)n(-c2cc(-c3ccnc(C(C)(C)O)n3)ncc2C)c(=O)c1Cl)c1ncc(F)cc1F` (single isomer, unassigned) [Example 1-D2, (P)-3-Chloro-4-((3,5-difluoropyridin-2-yl)methoxy-d2)-2′-(2-(2-hydroxypropan-2-yl)pyrimidin-4-yl)-5′,6-dimethyl-2H-[1,4′-bipyridin]-2-one], in data set [1] (versus non-deuterated comparator, listed as Example 1), the “effect of deuterium substitution on exposure after PO dosing (AUC)” value was “significantly higher exposure; also recorded: increased exposure”. The AUC(0-t) in data set [1] (Sprague-Dawley, rat, plasma, 2 mg/kg, ± one standard deviation, read-out: AUC0-10 hr) is 2020 ± 120 ng·h/mL. Moreover, in data set [2] (setting [4]), the “UV % at 280-290 nm or observed (+ or --), metabolite M532b (Hydroxylation)” value is given as “--”; the “UV % at 280-290 nm or observed (+ or --), metabolite M532e (Hydroxylation)” value was “+”; the “UV % at 280-290 nm or observed (+ or --), metabolite M532d (Hydroxylation)” value is reported as “--”; the “UV % at 280-290 nm, Parent-T120 min” value was 84.3%. Moreover, the “UV % at 280-290 nm, Parent-T0 min” value in data set [2] is 100.0%. In data set [3] (setting [4]), the “UV % … (O-dealkylation)” value is on record as “+”; the “UV % at 280-290 nm or observed (+ or --), metabolite M532b (Hydroxylation)” value was “--”; the “UV % at 280-290 nm or observed (+ or --), metabolite M532c (Hydroxylation)” value is recorded as “+”; the “UV % at 280-290 nm or observed (+ or --), metabolite M532e (Hydroxylation)” value is reported as “+”. Further, in data set [3] (setting [4]), the “UV % at 280-290 nm or observed (+ or --), metabolite M532d (Hydroxylation)” value is on record as “--” and the “UV % at 280-290 nm, Parent-T120 min” value amounted to 96.0%. In addition, the “UV % at 280-290 nm, Parent-T0 min” value in data set [3] is recorded as 100.0%.
